Columns and labels:
[1] = system: T1, EPSPS of the resistant R2 population (EPSPS1 and EPSPS2); experiment: EPSPS activity in leaf extract, continuous phosphate release (EnzChek); assay type: biochemical, Bidens pilosa; conditions: raw leaf extract, mixed isozymes; no EPSPS mutation found in this resistant population; read-out: I50
T1 construct: native enzyme in raw leaf extract; isozyme mix unknown

[2] = system: T2, EPSPS of the susceptible (S) population (EPSPS1 and EPSPS2); experiment: as above; assay type: biochemical, Bidens pilosa; conditions: raw leaf extract, mixed isozymes; 10 min at 360 nm; glyphosate 0-10000 μM; text prints 0.95 μM; read-out: I50
T2 construct: native enzyme in raw leaf extract; both isozymes expressed
Text: EPSPS activity in leaf extract, continuous phosphate release (EnzChek) on EPSPS of the susceptible (S) population (EPSPS1 and EPSPS2)

[3] = system: EPSPS of the resistant R1 population (EPSPS1 and EPSPS2, mixed alleles); conditions: read-out: I50; raw leaf extract, mixed isozymes and alleles (wild type, P106S, T102I/P106S); stated gain
Text: EPSPS activity in leaf extract, continuous phosphate release (EnzChek) on EPSPS of the resistant R1 population (EPSPS1 and EPSPS2, mixed alleles)

`O=C(O)CNCP(=O)(O)O` [glyphosate] gave an IC50 [1] of 8.2 ± 1.1 µM, an IC50 [2] of 0.96 µM and an IC50 [3] of 123 ± 2.1 µM.

Source: paper PMC5046737, “Target and Non-target Site Mechanisms Developed by Glyphosate-Resistant Hairy beggarticks (Bidens pilosa L.) Populations from Mexico” (Frontiers in Plant Science, 2016)
